From the supplement of paper PMC10307832

How the values were obtained:
Assay in all cases: relative viability (nuclei count vs DMSO), 5 days (fraction); higher = more cells survive
NCI-H1666 = tested on: NCI-H1666
Method in brief: (§1)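 Relative viability equals treated-well nuclei counts divided by vehicle-well nuclei counts. Counts came from 4× images of lung cancer cell lines grown in 1536-well plates for 5 days after pin-tool dosing on the day after seeding. Dosing used one drug alone or a fixed anchor-drug dose plus five library-drug doses (not always all listed) in √10 steps, and values are medians of duplicate plates.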

NCI-H1734 = tested on: NCI-H1734
Method in brief: as §1

SW 900 = tested on: SW 900
Method in brief: as §1

LOU-NH91 = tested on: LOU-NH91
Method in brief: as §1

NCI-H1944 = tested on: NCI-H1944
Method in brief: as §1

NCI-H23 = tested on: NCI-H23
Method in brief: as §1

NCI-H1755 = tested on: NCI-H1755
Method in brief: as §1

NCI-H1792 = tested on: NCI-H1792
Method in brief: as §1

EKVX = tested on: EKVX
Method in brief: as §1

HCC-366 = tested on: HCC-366
Method in brief: as §1

PC-3 [JPC-3] = tested on: PC-3 [JPC-3]
Method in brief: as §1

LK-2 = tested on: LK-2
Method in brief: as §1

NCI-H596 = tested on: NCI-H596
Method in brief: as §1

NCI-H1975 = tested on: NCI-H1975
Method in brief: as §1

EMC-BAC-2 = tested on: EMC-BAC-2
Method in brief: as §1

NCI-H441 = tested on: NCI-H441
Method in brief: as §1

NCI-H2170 = tested on: NCI-H2170
Method in brief: as §1

H3255 = tested on: H3255
Method in brief: as §1

ChaGo-K-1 = tested on: ChaGo-K-1
Method in brief: as §1

A-427 = tested on: A-427
Method in brief: as §1

COc1cc(N2CCC(C(N)=O)CC2)ccc1Nc1nc(N)c(Cl)c(Nc2ccccc2S(=O)(=O)C(C)C)n1 [HG-5-88-01] + NC(=O)Nc1cc(-c2cccc(F)c2)sc1C(=O)N[C@H]1CCCNC1 [AZD7762] (partner 0.2 µM)
relative viability (NCI-H1666; first compound 0.04 µM): 0.75 | relative viability (NCI-H1666; first compound 0.1265 µM): 0.783 | relative viability (NCI-H1666; first compound 0.4 µM): 0.779 | relative viability (NCI-H1666; first compound 1.265 µM): 0.771 | relative viability (NCI-H1666; first compound 4 µM): 0.53 | relative viability (NCI-H1734; first compound 0.04 µM): 0.515 | relative viability (NCI-H1734; first compound 0.1265 µM): 0.514 | relative viability (NCI-H1734; first compound 0.4 µM): 0.52 | relative viability (NCI-H1734; first compound 1.265 µM): 0.511 | relative viability (NCI-H1734; first compound 4 µM): 0.724 | relative viability (SW 900; first compound 0.04 µM): 0.582 | relative viability (SW 900; first compound 0.1265 µM): 0.713 | relative viability (SW 900; first compound 0.4 µM): 0.583 | relative viability (SW 900; first compound 1.265 µM): 0.517 | relative viability (SW 900; first compound 4 µM): 0.528 | relative viability (LOU-NH91; first compound 0.04 µM): 0.809 | relative viability (LOU-NH91; first compound 0.1265 µM): 0.677 | relative viability (LOU-NH91; first compound 0.4 µM): 0.649 | relative viability (LOU-NH91; first compound 1.265 µM): 0.551 | relative viability (LOU-NH91; first compound 4 µM): 0.514 | relative viability (NCI-H1944; first compound 0.04 µM): 0.586 | relative viability (NCI-H1944; first compound 0.1265 µM): 0.503 | relative viability (NCI-H1944; first compound 0.4 µM): 0.434 | relative viability (NCI-H1944; first compound 1.265 µM): 0.514 | relative viability (NCI-H1944; first compound 4 µM): 0.469 | relative viability (NCI-H23; first compound 0.04 µM): 0.483 | relative viability (NCI-H23; first compound 0.1265 µM): 0.27 | relative viability (NCI-H23; first compound 0.4 µM): 0.213 | relative viability (NCI-H23; first compound 1.265 µM): 0.235 | relative viability (NCI-H23; first compound 4 µM): 0.174 | relative viability (NCI-H1755; first compound 0.04 µM): 0.465 | relative viability (NCI-H1755; first compound 0.1265 µM): 0.476 | relative viability (NCI-H1755; first compound 0.4 µM): 0.419 | relative viability (NCI-H1755; first compound 1.265 µM): 0.449 | relative viability (NCI-H1755; first compound 4 µM): 0.516 | relative viability (NCI-H1792; first compound 0.04 µM): 0.752 | relative viability (NCI-H1792; first compound 0.1265 µM): 0.648 | relative viability (NCI-H1792; first compound 0.4 µM): 0.645 | relative viability (NCI-H1792; first compound 1.265 µM): 0.581 | relative viability (NCI-H1792; first compound 4 µM): 0.557 | relative viability (EKVX; first compound 0.04 µM): 0.673 | relative viability (EKVX; first compound 0.1265 µM): 0.622 | relative viability (EKVX; first compound 0.4 µM): 0.695 | relative viability (EKVX; first compound 4 µM): 0.527 | relative viability (HCC-366; first compound 0.04 µM): 0.286 | relative viability (HCC-366; first compound 0.1265 µM): 0.294 | relative viability (HCC-366; first compound 0.4 µM): 0.249 | relative viability (HCC-366; first compound 1.265 µM): 0.234 | relative viability (HCC-366; first compound 4 µM): 0.199 | relative viability (PC-3 [JPC-3]; first compound 0.04 µM): 0.863 | relative viability (PC-3 [JPC-3]; first compound 0.1265 µM): 0.703 | relative viability (PC-3 [JPC-3]; first compound 0.4 µM): 0.732 | relative viability (PC-3 [JPC-3]; first compound 1.265 µM): 0.713 | relative viability (PC-3 [JPC-3]; first compound 4 µM): 0.344 | relative viability (LK-2; first compound 0.04 µM): 0.326 | relative viability (LK-2; first compound 0.1265 µM): 0.329 | relative viability (LK-2; first compound 0.4 µM): 0.301 | relative viability (LK-2; first compound 4 µM): 0.157 | relative viability (NCI-H596; first compound 0.04 µM): 1.05 | relative viability (NCI-H596; first compound 0.1265 µM): 1.07 | relative viability (NCI-H596; first compound 0.4 µM): 1.04 | relative viability (NCI-H596; first compound 1.265 µM): 1.06 | relative viability (NCI-H596; first compound 4 µM): 0.697 | relative viability (NCI-H1975; first compound 0.04 µM): 0.757 | relative viability (NCI-H1975; first compound 0.1265 µM): 0.756 | relative viability (NCI-H1975; first compound 0.4 µM): 0.603 | relative viability (NCI-H1975; first compound 1.265 µM): 0.328 | relative viability (NCI-H1975; first compound 4 µM): 0.348 | relative viability (EMC-BAC-2; first compound 0.04 µM): 1.09 | relative viability (EMC-BAC-2; first compound 0.1265 µM): 1.21 | relative viability (EMC-BAC-2; first compound 0.4 µM): 0.922 | relative viability (EMC-BAC-2; first compound 1.265 µM): 0.975 | relative viability (EMC-BAC-2; first compound 4 µM): 0.65 | relative viability (NCI-H441; first compound 0.04 µM): 0.964 | relative viability (NCI-H441; first compound 0.1265 µM): 0.931 | relative viability (NCI-H441; first compound 0.4 µM): 1.19 | relative viability (NCI-H441; first compound 1.265 µM): 1.08 | relative viability (NCI-H441; first compound 4 µM): 0.998 | relative viability (NCI-H2170; first compound 0.04 µM): 0.819 | relative viability (NCI-H2170; first compound 0.1265 µM): 0.878 | relative viability (NCI-H2170; first compound 0.4 µM): 0.907 | relative viability (NCI-H2170; first compound 1.265 µM): 0.402 | relative viability (NCI-H2170; first compound 4 µM): 0.934 | relative viability (H3255; first compound 0.04 µM): 1.16 | relative viability (H3255; first compound 0.1265 µM): 1.01 | relative viability (H3255; first compound 0.4 µM): 0.916 | relative viability (H3255; first compound 4 µM): 0.699 | relative viability (ChaGo-K-1; first compound 0.04 µM): 0.842 | relative viability (ChaGo-K-1; first compound 0.1265 µM): 0.909 | relative viability (ChaGo-K-1; first compound 0.4 µM): 0.828 | relative viability (ChaGo-K-1; first compound 1.265 µM): 0.852 | relative viability (ChaGo-K-1; first compound 4 µM): 0.727 | relative viability (A-427; first compound 0.04 µM): 0.67 | relative viability (A-427; first compound 0.1265 µM): 0.776 | relative viability (A-427; first compound 0.4 µM): 0.744 | relative viability (A-427; first compound 1.265 µM): 0.656 | relative viability (A-427; first compound 4 µM): 0.679
